From patent US8106055B2, “Substituted amide compounds” (Gruenenthal GmbH, priority 2007, dated 2012)

Tests used:
[1] = target: T1, bradykinin 1 receptor (B1R) of the rat (Rattus norvegicus, UniProt P97583); assay: Functional investigation on the rat bradykinin 1 receptor (B1R), Ca2+ FLIPR assay in CHO K1 rB1R cells; assay type: cell-based; details: B1R antagonism rat; test substance 10 μM; Ca2+ FLIPR, CHO K1 rB1R cells
T1 construct: expressed in transfected cells; host or cells: CHO K1 cells
T1 sequence (P97583 1-337): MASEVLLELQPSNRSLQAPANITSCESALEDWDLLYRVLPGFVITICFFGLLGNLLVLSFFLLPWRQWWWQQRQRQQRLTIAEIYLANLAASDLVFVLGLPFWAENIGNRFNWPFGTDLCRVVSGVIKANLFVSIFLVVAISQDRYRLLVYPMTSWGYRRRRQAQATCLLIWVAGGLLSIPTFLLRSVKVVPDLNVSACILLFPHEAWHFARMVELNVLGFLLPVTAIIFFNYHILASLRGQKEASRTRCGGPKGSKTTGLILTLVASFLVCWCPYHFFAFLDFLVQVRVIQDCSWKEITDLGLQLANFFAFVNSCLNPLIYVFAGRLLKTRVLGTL
Method in brief: (§1)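 Cells were dye-loaded with Fluo-4 plus probenecid, then test substances added and Ca2+ influx compared with agonist control for % activation. After 10-20 min, EC80 agonist (Lys-Des-Arg9-bradykinin human; Des-Arg9-bradykinin rat) was applied; suppression gave % inhibition and IC50 values.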

[2] = target: T2, human bradykinin 1 receptor (B1R) (Homo sapiens, UniProt P46663); assay: Functional investigation on the human bradykinin 1 receptor (B1R), Ca2+ FLIPR assay in CHO K1 hB1R cells; assay type: cell-based; details: B1R antagonism human; test substance 10 μM; Ca2+ FLIPR, CHO K1 hB1R cells
T2 construct: expressed in transfected cells; host or cells: CHO K1 cells
T2 sequence (P46663 1-353): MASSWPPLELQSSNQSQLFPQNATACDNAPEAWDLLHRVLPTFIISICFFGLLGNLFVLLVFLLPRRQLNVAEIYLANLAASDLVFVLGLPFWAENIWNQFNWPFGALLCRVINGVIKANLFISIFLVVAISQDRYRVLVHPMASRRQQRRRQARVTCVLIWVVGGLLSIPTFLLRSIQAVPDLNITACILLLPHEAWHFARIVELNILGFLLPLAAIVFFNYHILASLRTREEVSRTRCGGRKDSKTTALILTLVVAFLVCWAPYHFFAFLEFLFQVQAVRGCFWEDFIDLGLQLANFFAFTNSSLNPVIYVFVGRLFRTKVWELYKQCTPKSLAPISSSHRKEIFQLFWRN
Method in brief: as §1

Compound	B1R Ant. r [10 μM] % Inhibition [1] [%]	B1R Ant. h [10 μM] % Inhibition [2] [%]
CN(C)C(c1cccc(F)c1)C1CCC(CNC(=O)COC2CCN(S(=O)(=O)c3ccccc3)CC2)CC1 (centres unmarked) [Example 477]	17	−16
CN(C)C(c1ccc(Cl)cc1)C1CCC(CNC(=O)COCCN(C)S(=O)(=O)c2ccc(Cl)cc2Cl)CC1 (centres unmarked) [Example 459]	26	29
COc1cc(C)c(S(=O)(=O)N2CCC(OCC(=O)NCC3CCC(C(c4ccc(F)cc4)N(C)C)CC3)CC2)c(C)c1C (centres unmarked) [Example 527]	68	57
COc1cc(C)c(S(=O)(=O)N(CCOCC(=O)NCC2CCC(C(CCc3ccccc3)N(C)C)CC2)Cc2ccccc2)c(C)c1 (centres unmarked) [Example 542]	45	103
CN(C)C(CCc1ccccc1)C1CCC(CNC(=O)COCCN(C)S(=O)(=O)c2ccc(F)cc2)CC1 (centres unmarked) [Example 539]	32	27
CN(C)C(CCc1ccccc1)C1CCC(CNC(=O)COC2CCCCC2N(C)S(=O)(=O)c2ccc(Cl)c(Cl)c2)CC1 (centres unmarked) [Example 451]	11	87
Cc1ccc(S(=O)(=O)N2CCC(OCC(=O)NCCC3CCC(C(c4ccc(F)cc4)N(C)C)CC3)C2)cc1 (centres unmarked) [Example 491]	16	5
Cc1cc(C)c(S(=O)(=O)N(C)CCOCC(=O)NC2CCC(C(c3ccc(F)cc3)N(C)C)CC2)c(C)c1 (centres unmarked) [Example 490]	12	45
COc1ccc(S(=O)(=O)N2CCC(OCC(=O)NCC3CCC(C(c4ccc(F)cc4)N(C)C)CC3)C2)cc1OC (centres unmarked) [Example 497]	17	−4
COc1cc(C)c(S(=O)(=O)N2CCC(CCOCC(=O)NCC3CCC(C(CCc4ccccc4)N(C)C)CC3)CC2)c(C)c1C (centres unmarked) [Example 521]	11	66
CN(C)C(c1ccc(F)cc1)C1CCC(CCNC(=O)COCCN(Cc2ccccc2)S(=O)(=O)c2ccccc2)CC1 (centres unmarked) [Example 489]	22	34
COc1cc(C)c(S(=O)(=O)N2CCC(OCC(=O)NCC3CCC(C(c4ccc(Cl)cc4)N(C)C)CC3)CC2)c(C)c1C (centres unmarked) [Example 498]	2	17
CN(C)C(CCc1ccccc1)C1CCC(CNC(=O)COCCN(C)S(=O)(=O)c2c(Cl)cc(Cl)cc2Cl)CC1 (centres unmarked) [Example 515]	54	101
CN(C)C(CCc1ccccc1)C1CCC(CNC(=O)COCCN(C)S(=O)(=O)c2ccc(Cl)cc2Cl)CC1 (centres unmarked) [Example 513]	40	100
COc1cc(C)c(S(=O)(=O)N2CCC(OCC(=O)NCC3CCC(C(CCc4ccccc4)N(C)C)CC3)C2)c(C)c1C (centres unmarked) [Example 503]	37	105
CN(C)C(c1ccc(F)cc1)C1CCC(NC(=O)COCC2CCCN(S(=O)(=O)c3ccccc3)C2)CC1 (centres unmarked) [Example 478]	23	−3
COc1ccc(S(=O)(=O)N2CCCCC2COCC(=O)NC2CCC(C(c3ccc(F)cc3)N(C)C)CC2)cc1 (centres unmarked) [Example 450]	52	40
CN(C)C(c1ccc(Cl)cc1)C1CCC(CCNC(=O)COCCC2CCN(S(=O)(=O)c3ccccc3)CC2)CC1 (centres unmarked) [Example 531]	−1	2
Cc1cc(C)c(S(=O)(=O)N2CCC(OCC(=O)NCC3CCC(C(CCc4ccccc4)N(C)C)CC3)C2)c(C)c1 (centres unmarked) [Example 475]	40	103

Compound	B1R Ant. r [10 μM] % Inhibition [1] [%]	B1R Ant. h [10 μM] % Inhibition [2] [%]
COc1ccc(S(=O)(=O)N2CCCC2COCC(=O)NCC2CCC(C(c3ccc(F)cc3)N(C)C)CC2)cc1 (centres unmarked) [Example 511]	17	38
COc1cc(C)c(S(=O)(=O)N2CCCC(OCC(=O)NCCC3CCC(C(c4ccc(F)cc4)N(C)C)CC3)C2)c(C)c1C (centres unmarked) [Example 468]	33	50
CN(C)C(c1ccccc1)C1CCC(CNC(=O)COCCC2CCN(S(=O)(=O)c3ccccc3)CC2)CC1 (centres unmarked) [Example 507]	3	−19
COc1ccc(S(=O)(=O)N2CCCCC2COCC(=O)NCCC2CCC(C(c3ccc(F)cc3)N(C)C)CC2)cc1OC (centres unmarked) [Example 462]	−13	−8
COc1ccc(S(=O)(=O)N2CCCCC2COCC(=O)NCC2CCC(C(CCc3ccccc3)N(C)C)CC2)cc1 (centres unmarked) [Example 469]	87	91
COc1cc(C)c(S(=O)(=O)N2CCC(OCC(=O)NCCC3CCC(C(c4ccc(F)cc4)N(C)C)CC3)C2)c(C)c1C (centres unmarked) [Example 467]	47	67
COc1cc(C)c(S(=O)(=O)N2CCC(OCC(=O)NCCC3CCC(C(c4ccc(Cl)cc4)N(C)C)CC3)CC2)c(C)c1C (centres unmarked) [Example 472]	26	1
COc1ccc(S(=O)(=O)N2CCCCC2COCC(=O)NCCC2CCC(C(c3ccc(F)cc3)N(C)C)CC2)c(OC)c1 (centres unmarked) [Example 500]	23	3
Cc1cc(C)c(S(=O)(=O)N2CCC(OCC(=O)NCCC3CCC(C(c4ccc(Cl)cc4)N(C)C)CC3)C2)c(C)c1 (centres unmarked) [Example 506]	23	83
CN(C)C(c1ccc(F)cc1)C1CCC(NC(=O)COC2CCN(S(=O)(=O)c3ccccc3)C2)CC1 (centres unmarked) [Example 463]	17	−7
COc1cc(C)c(S(=O)(=O)N(C)CCOCC(=O)NCC2CCC(C(c3ccc(F)cc3)N(C)C)CC2)c(C)c1 (centres unmarked) [Example 458]	104	103
CN(C)C(c1ccc(F)cc1)C1CCC(CCNC(=O)COCCN(C)S(=O)(=O)c2ccc(F)cc2)CC1 (centres unmarked) [Example 487]	9	9
CN(C)C(CCc1ccccc1)C1CCC(CNC(=O)COC2CCN(S(=O)(=O)c3ccc(Cl)cc3Cl)C2)CC1 (centres unmarked) [Example 496]	35	98
COc1cc(C)c(S(=O)(=O)N2CCC(OCC(=O)NC3CCC(C(c4ccc(F)cc4)N(C)C)CC3)CC2)c(C)c1C (centres unmarked) [Example 454]	10	45
COc1cc(C)c(S(=O)(=O)N2CCC(OCC(=O)NCCC3CCC(C(c4ccc(F)cc4)N(C)C)CC3)CC2)c(C)c1C (centres unmarked) [Example 480]	4	23
CN(C)C(c1ccc(F)cc1)C1CCC(CCNC(=O)COCC2CCCN(S(=O)(=O)c3ccccc3)C2)CC1 (centres unmarked) [Example 479]	22	18
COc1cc(C)c(S(=O)(=O)N2CCN(CCOCC(=O)NCC3CCC(C(CCc4ccccc4)N(C)C)CC3)CC2)c(C)c1C (centres unmarked) [Example 528]	14	98
COc1ccc(S(=O)(=O)N2CCCCC2COCC(=O)NC2CCC(C(c3ccc(F)cc3)N(C)C)CC2)c(OC)c1 (centres unmarked) [Example 524]	26	−11
